From ChEMBL document CHEMBL1133418, “Synthesis and biological evaluation of novel 9-functional heterocyclic coupled 7-deoxy-9-dihydropaclitaxel analogue” (2000) come the findings set out here.

Format in all cases: functional
The target of assay [1] is Tubulin alpha chain (Sus scrofa) (UniProt P02550). Briefly: Effective dose which causes polymerization of 50% of the tubulin present at 37 degree C in Microtubule assembly assay.
Assay [2] concerns SK-OV-3. Briefly: Cytotoxicity ratio was evaluated against human tumor cell line SKOV3 (Human ovarian cancer) after 72 hr incubation relative to paclitaxel (ED50 = […]).
The test system of assay [3] is WiDr. The assay is described as follows: Cytotoxicity ratio was evaluated against human tumor cell line WIDR (Human colon cancer) after 72 hr incubation relative to paclitaxel (ED50 = […]).
Assay [4] deals with ECa-109 cell line. The assay is described as follows: Cytotoxicity ratio was evaluated against tumor cell line ECa-109 (Human esophagus cancer) after 72 hr incubation relative to paclitaxel (ED50 = […]).
In assay [5] the test system is MCF7. Briefly: Cytotoxicity ratio was evaluated against human tumor cell line MCF-7 (Human breast cancer) after 72 hr incubation relative to paclitaxel (ED50 = […]).
In assay [6] the test system is SK-OV-3. The assay is described as follows: Cytotoxicity ratio was evaluated against human tumor cell line SKOV3 (Human ovarian cancer) after 72 hr incubation.
The subject of assay [7] is WiDr. Briefly: Cytotoxicity ratio was evaluated against human tumor cell line WIDR (Human colon cancer) after 72 hr incubation.
Assay [8] has as its system ECa-109 cell line. Briefly: Cytotoxicity ratio was evaluated against tumor cell line ECa-109 (Human esophagus cancer) after 72 hr incubation.
Assay [9] relates to MCF7. Briefly: Cytotoxicity ratio was evaluated against human tumor cell line MCF-7 (Human breast cancer) after 72 h incubation.

Sequence of Tubulin alpha chain (Sus scrofa) (P02550 whole entry, looked up): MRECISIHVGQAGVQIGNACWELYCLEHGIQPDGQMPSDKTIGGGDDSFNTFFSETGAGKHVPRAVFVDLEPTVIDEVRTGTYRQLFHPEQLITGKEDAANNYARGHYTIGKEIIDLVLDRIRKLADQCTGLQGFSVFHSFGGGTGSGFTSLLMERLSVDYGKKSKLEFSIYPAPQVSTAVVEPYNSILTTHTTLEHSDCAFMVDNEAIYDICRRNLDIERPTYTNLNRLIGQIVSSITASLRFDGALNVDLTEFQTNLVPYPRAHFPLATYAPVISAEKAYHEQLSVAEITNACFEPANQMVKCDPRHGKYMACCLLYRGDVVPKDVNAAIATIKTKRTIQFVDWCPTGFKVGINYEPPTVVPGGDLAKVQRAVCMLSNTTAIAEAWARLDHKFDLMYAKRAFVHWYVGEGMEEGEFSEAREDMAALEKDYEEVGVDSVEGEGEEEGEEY

On to `CC(=O)O[C@@H]1C2=C(C)[C@@H](OC(=O)[C@H](O)[C@@H](NC(=O)c3ccccc3)c3ccccc3)C[C@@](O)([C@@H](OC(=O)c3ccccc3)C3[C@@](C)(CC[C@H]4OC[C@@]34OC(C)=O)[C@H]1OC(=O)CCC(=O)OC[C@H]1O[C@@H](n3cc(C)c(=O)[nH]c3=O)C[C@@H]1N=[N+]=[N-])C2(C)C` (stereo not given in full), for which the ED50 in assay [1] was greater than 20000 nM. In addition, the Ratio is recorded as 3.41 in the assay on SK-OV-3 [2], 2.62 with WiDr [3], 3.54 in the assay with ECa-109 cell line [4] and 3.13 with MCF7 [5].

The compound `CC(=O)O[C@@H]1C2=C(C)[C@@H](OC(=O)[C@H](O)[C@@H](NC(=O)c3ccccc3)c3ccccc3)C[C@@](O)([C@@H](OC(=O)c3ccccc3)C3[C@@](C)(CC[C@H]4OC[C@@]34OC(C)=O)[C@H]1OC(=O)CCC(=O)OC[C@H]1O[C@@H](n3cnc4c(Cl)ncnc43)[C@H](O)[C@@H]1O)C2(C)C` (stereo not given in full) registered an ED50 in [1] greater than 15000 nM. Besides, the Ratio was found to be 2.24 with SK-OV-3 [2], 2.16 in the assay with WiDr [3], 0.18 in the assay on ECa-109 cell line [4] and 3.68 in the assay on MCF7 [5].

As for `CC(=O)O[C@@H]1C2=C(C)[C@@H](OC(=O)[C@H](O)[C@@H](NC(=O)c3ccccc3)c3ccccc3)C[C@@](O)([C@@H](OC(=O)c3ccccc3)C3[C@@](C)(CC[C@H]4OC[C@@]34OC(C)=O)[C@H]1OC(=O)CCC(=O)OC[C@H]1O[C@@H](n3ccc(NC(=O)c4ccccc4)nc3=O)C[C@@H]1O)C2(C)C` (stereo not given in full), the ED50 in [1] stood at 900 nM. The Ratio with SK-OV-3 [2] was determined as 1.98; in the assay with WiDr [3], 2.43; in the assay on ECa-109 cell line [4], 1.03; in the assay on MCF7 [5], 1.63.

With `CC(=O)O[C@@H]1C2=C(C)[C@@H](OC(=O)[C@H](O)[C@@H](NC(=O)c3ccccc3)c3ccccc3)C[C@@](O)([C@@H](OC(=O)c3ccccc3)C3[C@@](C)(CC[C@H]4OC[C@@]34OC(C)=O)[C@H]1OC(=O)CCC(=O)OC[C@H]1O[C@@H](n3cc(Br)c(=O)[nH]c3=O)[C@H](O)[C@@H]1O)C2(C)C` (stereo not given in full), in assay [1], the ED50 was greater than 15000 nM. The Ratio in the assay with SK-OV-3 [2] turned out to be 4.06; in the assay on WiDr [3], 3.87; in the assay on ECa-109 cell line [4], 0.16; with MCF7 [5] it was 2.64.

`CC(=O)O[C@H]1C(=O)[C@@]2(C)[C@H]([C@H](OC(=O)c3ccccc3)[C@]3(O)C[C@H](OC(=O)[C@H](O)[C@@H](NC(=O)c4ccccc4)c4ccccc4)C(C)=C1C3(C)C)[C@]1(OC(C)=O)CO[C@@H]1C[C@@H]2O` [PACLITAXEL] showed an ED50 in [1] of 400 nM. The Ratio in the assay with SK-OV-3 [6], with WiDr [7], with ECa-109 cell line [8] and in the assay with MCF7 [9] was 1 each time.
